In PubChem BioAssay (NCI):
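Values below derive from 48-hour exposures of cells grown in 96-well plates, with endpoints linearly interpolated between the two concentrations bracketing the appropriate inhibition level. At the TGI there is no net growth.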

Experiments:
Assay in all cases: NCI tumour cell line growth inhibition, 48 h
[1] = tested on: MDA-N
[2] = tested on: KM20L2 colon
[3] = tested on: HOP-18 NSCLC
[4] = tested on: SNB-78 CNS
[5] = tested on: 786-0 renal
[6] = tested on: RXF-631 renal
[7] = tested on: P388/ADR leukemia
[8] = tested on: P388 leukemia
[9] = tested on: SN12K1 renal

Structure (SMILES): Cc1cc(C)c(S(=O)(=O)N(CCCN)OCCCN)c(C)c1
- TGI [1]: > 100 µM

Structure (SMILES): CC1CCN(c2cc(-c3cc4ccccc4o3)oc(=O)c2C#N)CC1
- TGI [2]: > 100 µM
- TGI [3]: > 100 µM

Structure (SMILES): Clc1ccc(-c2nnc(-c3nsc4ccccc34)o2)cc1
- TGI [4]: > 100 µM
- TGI [2]: > 100 µM

Structure (SMILES): O=c1[nH]c(=S)[nH]c2c(C3OC(CO)C(O)C3O)nsc12 (stereo unspecified)
- TGI [1]: > 100 µM

Structure (SMILES): Clc1cccc(C2SCc3nc4ccccc4n32)c1 (stereo unspecified)
- TGI [4]: 87.5 µM
- TGI [3]: 47.5 µM

Structure (SMILES): CC(C)(CC1(C)NC(=O)NC1=O)OCc1ccccc1 (stereo unspecified)
- TGI [5]: > 100 µM

Structure (SMILES): CCOC(=O)[C@H]1Nc2c(cccc2[N+](=O)[O-])C2c3ccccc3CC21 (stereo partly specified)
- TGI [6]: > 100 µM
- TGI [4]: > 100 µM
- TGI [2]: > 100 µM

Structure (SMILES): CC1=NN(C(=O)c2ccc(C)cc2)C(=O)C1N=Nc1ccccc1C(=O)O (stereo unspecified)
- TGI [4]: > 100 µM
- TGI [2]: > 100 µM
- TGI [7]: > 100 µM
- TGI [8]: > 51.5 µM
- TGI [3]: > 100 µM
- TGI [9]: > 100 µM

Structure (SMILES): N/C(=N\N=C/c1cc([N+](=O)[O-])cc([N+](=O)[O-])c1O)NO
- TGI [4]: > 100 µM
- TGI [2]: > 100 µM
- TGI [7]: > 100 µM
- TGI [8]: 21.9 µM
- TGI [3]: > 100 µM
- TGI [9]: 4.92 µM

Structure (SMILES): Cc1ccc2oc3c(ccc(=O)n3C)c(=O)c2c1
- TGI [1]: > 100 µM

Structure (SMILES): c1csc(C(NC2=NCCO2)C2CC2)c1 (stereo unspecified)
- TGI [1]: > 100 µM
